Legend:
CDK6/cyclin D3 = CDK6/cyclin D3 (Homo sapiens, UniProt Q00534); test: Inhibition of CDK6/Cyclin-D3 (unknown origin) using histoneH1 as substrate after 90 mins by ADP-Glo assay; type: protein-complex assay
[1] = target: Tyrosine-protein kinase JAK3 (Homo sapiens, UniProt P52333); test: Inhibition of recombinant human GST-tagged JAK3 cytoplasmic domain (781 to 1124 residues) expressed in baculovirus expression system using ULight-JAK-1 peptide as substrate preincubated for 15 mins followed by ATP addition measured after 90 mins
[2] = target: Aurora kinase B (Homo sapiens) (UniProt Q96GD4); test: Inhibition of recombinant full length human His-tagged AURKB expressed in baculovirus expression system at 0.1 uM by Z'-Lyte assay relative to control
[3] = target: Casein kinase I isoform alpha (Homo sapiens) (UniProt P48729); test: Inhibition of recombinant full length human GST-tagged CK1alpha expressed in baculovirus expression system at 0.1 uM by Z'-Lyte assay relative to control
[4] = target: G protein-coupled receptor kinase 4 (Homo sapiens) (UniProt P32298); test: Inhibition of recombinant human full length GST-tagged GRK4 expressed in baculovirus expression system at 0.1 uM by Z'-Lyte assay relative to control
[5] = target: G protein-coupled receptor kinase 6 (Homo sapiens) (UniProt P43250); test: Inhibition of recombinant human full length GST-tagged GRK6 expressed in baculovirus expression system at 0.1 uM by Z'-Lyte assay relative to control
[6] = target: Tyrosine-protein kinase JAK2 (Homo sapiens) (UniProt O60674); test: Inhibition of recombinant human GST-tagged JAK2 expressed in baculovirus expression system at 0.1 uM by TR-FRET assay relative to control
[7] = target: Mitogen-activated protein kinase 8 (Homo sapiens) (UniProt P45983); test: Inhibition of recombinant human full length His-tagged JNK1 expressed in baculovirus expression system at 0.1 uM by Z'-Lyte assay relative to control
[8] = target: MAP kinase-activated protein kinase 2 (Homo sapiens) (UniProt P49137); test: Inhibition of recombinant human full length His-tagged MK2 expressed in Escherichia coli at 0.1 uM by Z'-Lyte assay relative to control
[9] = target: cAMP-dependent protein kinase catalytic subunit alpha (Homo sapiens) (UniProt P17612); test: Inhibition of recombinant human His-tagged PKA expressed in Escherichia coli at 0.1 uM by Z'-Lyte assay relative to control
[10] = target: STE20-like serine/threonine-protein kinase (Homo sapiens) (UniProt Q9H2G2); test: Inhibition of recombinant human full length GST-tagged SLK expressed in baculovirus expression system at 0.1 uM by LanthaScreen assay relative to control
[11] = target: RAC-gamma serine/threonine-protein kinase (Homo sapiens) (UniProt Q9Y243); test: Inhibition of recombinant full length human His-tagged AKT3 expressed in baculovirus expression system at 1 uM by TR-FRET assay relative to control
[12] = target: Aurora kinase A (Homo sapiens) (UniProt O14965); test: Inhibition of recombinant full length human His-tagged AURKA expressed in baculovirus expression system at 1 uM by Z'-Lyte assay relative to control
[13] = target: Hepatocyte growth factor receptor (Homo sapiens) (UniProt P08581); test: Inhibition of recombinant human His-tagged c-Met cytoplasmic domain expressed in baculovirus expression system at 1 uM by Z'-Lyte assay relative to control
[14] = target: Beta-adrenergic receptor kinase 1 (Homo sapiens) (UniProt P25098); test: Inhibition of recombinant human full length His-tagged GRK2 expressed in baculovirus expression system at 1 uM by Z'-Lyte assay relative to control
[15] = target: Tyrosine-protein kinase JAK2 (Homo sapiens) (UniProt O60674); test: Inhibition of recombinant human GST-tagged JAK2 expressed in baculovirus expression system at 1 uM by TR-FRET assay relative to control
[16] = target: Leucine-rich repeat serine/threonine-protein kinase 2 (Homo sapiens) (UniProt Q5S007); test: Inhibition of recombinant human GST-tagged LRRK2 (970 to 2527 residues) expressed in baculovirus expression system at 1 uM by TR-FRET assay relative to control
[17] = target: MAP kinase-activated protein kinase 2 (Homo sapiens) (UniProt P49137); test: Inhibition of recombinant human full length His-tagged MK2 expressed in Escherichia coli at 1 uM by Z'-Lyte assay relative to control
[18] = target: Mitogen-activated protein kinase kinase kinase 9 (Homo sapiens) (UniProt P80192); test: Inhibition of recombinant human GST-tagged MLK1 expressed in baculovirus expression system at 1 uM by Z'-Lyte assay relative to control
[19] = target: Serine/threonine-protein kinase PAK 1 (Homo sapiens) (UniProt Q13153); test: Inhibition of recombinant human full length GST-tagged PAK1 expressed in baculovirus expression system at 1 uM by Z'-Lyte assay relative to control
[20] = target: Phosphatidylinositol 4,5-bisphosphate 3-kinase catalytic subunit delta isoform (Homo sapiens) (UniProt O00329); test: Inhibition of PI3K delta (unknown origin) at 1 uM by ADP-Glo assay relative to control
[21] = target: Phosphatidylinositol 4,5-bisphosphate 3-kinase catalytic subunit gamma isoform (Homo sapiens) (UniProt P48736); test: Inhibition of PI3K gamma (unknown origin) at 1 uM by ADP-Glo assay relative to control
[22] = target: Proto-oncogene tyrosine-protein kinase receptor Ret (Homo sapiens) (UniProt P07949); test: Inhibition of recombinant human GST-tagged RET cytoplasmic domain (658 to 1114 residues) expressed in baculovirus expression system at 1 uM by Z'-Lyte assay relative to control
[23] = target: Tyrosine-protein kinase receptor TYRO3 (Homo sapiens) (UniProt Q06418); test: Inhibition of recombinant human GST-tagged TYRO3 cytoplasmic domain (451 to 890 residues) expressed in baculovirus expression system at 1 uM by Z'-Lyte assay relative to control
[24] = Dissociation constant, pKa of the compound at pH 3 to 11 by pH metric method; type: physicochemical
[25] = Cmax in ICR mouse at 5 mg/kg, po administered as single dose by LC-MS/MS analysis; type: ADME, organism-based; set-up: dose 5 mg/kg, route oral; details: in vivo
[26] = Half life in ICR mouse at 2 mg/kg, iv administered as single dose by LC-MS/MS analysis; type: ADME, organism-based; details: in vivo
[27] = Tmax in CD-1 mouse brain at 10 mg/kg, po administered as single dose by LC-MS/MS analysis; type: ADME, organism-based
[28] = AUC (0 to infinity) in CD-1 mouse brain at 10 mg/kg, po administered as single dose by LC-MS/MS analysis; type: ADME, organism-based; set-up: dose 10 mg/kg, time infinity, route oral; details: in vivo
[29] = Unbound Cmax in CD-1 mouse brain at 10 mg/kg, po administered as single dose by LC-MS/MS analysis; type: ADME, organism-based; details: in vivo
U-87 MG = test: Antitumor activity against luciferase-fused human U87MG cells orthotopically xenografted in nude mouse assessed as tumor growth inhibition at 25 mg/kg, po qd for 4 weeks by bioluminescence imaging relative to control; type: functional, U-87MG ATCC; details: 672 h, read-out: TGI
[30] = system: Mitogen-activated protein kinase kinase kinase 7; test: Inhibition of TAK1 (unknown origin) at 1 uM by TR-FRET assay relative to control; details: Homo sapiens

Sequence of Tyrosine-protein kinase JAK2 (Homo sapiens) (O60674 whole entry, the tested form may be a part): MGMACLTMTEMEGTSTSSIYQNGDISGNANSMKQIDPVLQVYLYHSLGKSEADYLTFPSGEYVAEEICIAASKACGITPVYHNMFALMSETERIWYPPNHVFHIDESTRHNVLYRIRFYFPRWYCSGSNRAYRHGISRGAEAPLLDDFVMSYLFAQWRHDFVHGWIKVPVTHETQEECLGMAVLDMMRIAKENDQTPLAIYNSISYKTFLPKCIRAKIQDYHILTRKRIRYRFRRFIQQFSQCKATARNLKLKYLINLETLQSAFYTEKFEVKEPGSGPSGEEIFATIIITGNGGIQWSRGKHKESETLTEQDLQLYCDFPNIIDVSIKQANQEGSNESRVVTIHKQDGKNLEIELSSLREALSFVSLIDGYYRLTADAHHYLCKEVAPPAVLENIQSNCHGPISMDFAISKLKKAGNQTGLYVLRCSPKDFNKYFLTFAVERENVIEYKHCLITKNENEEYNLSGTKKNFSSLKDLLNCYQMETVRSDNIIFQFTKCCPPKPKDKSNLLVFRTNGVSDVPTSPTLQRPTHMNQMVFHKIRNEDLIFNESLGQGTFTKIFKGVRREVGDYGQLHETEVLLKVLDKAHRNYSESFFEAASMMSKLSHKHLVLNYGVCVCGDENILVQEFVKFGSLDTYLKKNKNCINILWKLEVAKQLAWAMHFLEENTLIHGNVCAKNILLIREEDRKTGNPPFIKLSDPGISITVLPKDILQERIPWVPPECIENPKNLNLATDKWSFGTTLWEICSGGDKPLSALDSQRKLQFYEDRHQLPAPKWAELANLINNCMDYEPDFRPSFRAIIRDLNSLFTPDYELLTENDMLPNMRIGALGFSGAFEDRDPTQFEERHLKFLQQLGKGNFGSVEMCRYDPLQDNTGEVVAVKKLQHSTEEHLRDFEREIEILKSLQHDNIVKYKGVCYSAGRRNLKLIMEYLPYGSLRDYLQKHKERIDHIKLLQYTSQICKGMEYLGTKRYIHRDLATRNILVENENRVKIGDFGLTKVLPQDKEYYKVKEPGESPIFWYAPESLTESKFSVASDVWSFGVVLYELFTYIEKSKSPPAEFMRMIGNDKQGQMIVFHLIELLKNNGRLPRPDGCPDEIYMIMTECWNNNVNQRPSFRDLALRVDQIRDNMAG
Sequence of MAP kinase-activated protein kinase 2 (Homo sapiens) (P49137 whole entry, looked up): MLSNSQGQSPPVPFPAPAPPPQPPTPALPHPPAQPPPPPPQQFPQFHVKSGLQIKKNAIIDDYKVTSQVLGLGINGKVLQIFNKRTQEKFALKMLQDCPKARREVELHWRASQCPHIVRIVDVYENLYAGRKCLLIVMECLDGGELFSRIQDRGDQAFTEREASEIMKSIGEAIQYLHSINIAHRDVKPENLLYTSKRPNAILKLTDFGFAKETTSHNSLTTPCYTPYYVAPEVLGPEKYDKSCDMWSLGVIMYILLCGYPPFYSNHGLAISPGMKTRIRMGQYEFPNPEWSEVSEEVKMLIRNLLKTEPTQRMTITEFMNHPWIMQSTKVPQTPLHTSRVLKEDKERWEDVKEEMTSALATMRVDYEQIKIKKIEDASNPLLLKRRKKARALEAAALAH
Sequence of Beta-adrenergic receptor kinase 1 (Homo sapiens) (P25098 whole entry): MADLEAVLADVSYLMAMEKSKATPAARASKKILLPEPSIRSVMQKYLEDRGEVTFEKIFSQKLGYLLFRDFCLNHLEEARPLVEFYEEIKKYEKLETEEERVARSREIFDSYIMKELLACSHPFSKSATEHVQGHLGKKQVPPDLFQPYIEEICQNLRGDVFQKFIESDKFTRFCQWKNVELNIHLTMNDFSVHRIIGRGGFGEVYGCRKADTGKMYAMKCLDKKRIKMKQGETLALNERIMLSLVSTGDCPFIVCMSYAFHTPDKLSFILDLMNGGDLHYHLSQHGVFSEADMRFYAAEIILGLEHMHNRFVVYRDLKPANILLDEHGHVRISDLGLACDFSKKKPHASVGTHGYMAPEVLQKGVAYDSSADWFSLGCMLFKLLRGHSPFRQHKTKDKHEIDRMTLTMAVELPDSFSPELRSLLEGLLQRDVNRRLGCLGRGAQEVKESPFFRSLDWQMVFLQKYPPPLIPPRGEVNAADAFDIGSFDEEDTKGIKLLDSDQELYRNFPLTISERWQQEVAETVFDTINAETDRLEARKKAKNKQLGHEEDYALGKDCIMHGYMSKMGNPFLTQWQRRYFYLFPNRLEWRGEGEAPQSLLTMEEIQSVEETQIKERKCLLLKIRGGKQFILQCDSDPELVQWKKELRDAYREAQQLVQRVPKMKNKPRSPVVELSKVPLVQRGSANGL
Sequence of RAC-gamma serine/threonine-protein kinase (Homo sapiens) (Q9Y243 whole entry): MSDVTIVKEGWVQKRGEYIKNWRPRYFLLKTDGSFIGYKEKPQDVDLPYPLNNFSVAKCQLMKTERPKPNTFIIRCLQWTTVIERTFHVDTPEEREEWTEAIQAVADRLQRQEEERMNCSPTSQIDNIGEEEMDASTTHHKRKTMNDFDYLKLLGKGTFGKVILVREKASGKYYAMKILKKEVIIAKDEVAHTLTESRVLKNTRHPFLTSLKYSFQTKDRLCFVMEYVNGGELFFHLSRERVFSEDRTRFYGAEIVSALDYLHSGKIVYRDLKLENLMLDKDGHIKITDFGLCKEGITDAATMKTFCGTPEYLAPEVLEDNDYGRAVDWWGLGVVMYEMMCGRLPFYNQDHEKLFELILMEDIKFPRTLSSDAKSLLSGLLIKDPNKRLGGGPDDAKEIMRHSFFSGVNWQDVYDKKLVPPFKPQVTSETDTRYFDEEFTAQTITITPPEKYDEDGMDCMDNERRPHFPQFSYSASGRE
Sequence of Serine/threonine-protein kinase PAK 1 (Homo sapiens) (Q13153 whole entry, canonical isoform): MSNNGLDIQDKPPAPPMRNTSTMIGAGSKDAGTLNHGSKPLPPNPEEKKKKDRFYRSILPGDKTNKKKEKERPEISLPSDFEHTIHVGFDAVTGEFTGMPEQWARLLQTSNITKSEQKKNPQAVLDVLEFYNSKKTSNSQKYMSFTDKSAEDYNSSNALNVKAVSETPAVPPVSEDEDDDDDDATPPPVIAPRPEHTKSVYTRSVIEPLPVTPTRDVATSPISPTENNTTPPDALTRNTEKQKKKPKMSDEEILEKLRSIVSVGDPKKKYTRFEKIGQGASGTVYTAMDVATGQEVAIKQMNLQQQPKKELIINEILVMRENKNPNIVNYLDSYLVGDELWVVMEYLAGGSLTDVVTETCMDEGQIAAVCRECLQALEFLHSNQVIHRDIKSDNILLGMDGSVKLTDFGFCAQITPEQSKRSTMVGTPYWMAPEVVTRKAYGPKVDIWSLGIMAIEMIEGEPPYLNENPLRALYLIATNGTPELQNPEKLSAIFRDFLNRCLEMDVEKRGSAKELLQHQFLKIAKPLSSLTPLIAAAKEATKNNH
Sequence of Phosphatidylinositol 4,5-bisphosphate 3-kinase catalytic subunit delta isoform (Homo sapiens) (O00329 whole entry, canonical isoform): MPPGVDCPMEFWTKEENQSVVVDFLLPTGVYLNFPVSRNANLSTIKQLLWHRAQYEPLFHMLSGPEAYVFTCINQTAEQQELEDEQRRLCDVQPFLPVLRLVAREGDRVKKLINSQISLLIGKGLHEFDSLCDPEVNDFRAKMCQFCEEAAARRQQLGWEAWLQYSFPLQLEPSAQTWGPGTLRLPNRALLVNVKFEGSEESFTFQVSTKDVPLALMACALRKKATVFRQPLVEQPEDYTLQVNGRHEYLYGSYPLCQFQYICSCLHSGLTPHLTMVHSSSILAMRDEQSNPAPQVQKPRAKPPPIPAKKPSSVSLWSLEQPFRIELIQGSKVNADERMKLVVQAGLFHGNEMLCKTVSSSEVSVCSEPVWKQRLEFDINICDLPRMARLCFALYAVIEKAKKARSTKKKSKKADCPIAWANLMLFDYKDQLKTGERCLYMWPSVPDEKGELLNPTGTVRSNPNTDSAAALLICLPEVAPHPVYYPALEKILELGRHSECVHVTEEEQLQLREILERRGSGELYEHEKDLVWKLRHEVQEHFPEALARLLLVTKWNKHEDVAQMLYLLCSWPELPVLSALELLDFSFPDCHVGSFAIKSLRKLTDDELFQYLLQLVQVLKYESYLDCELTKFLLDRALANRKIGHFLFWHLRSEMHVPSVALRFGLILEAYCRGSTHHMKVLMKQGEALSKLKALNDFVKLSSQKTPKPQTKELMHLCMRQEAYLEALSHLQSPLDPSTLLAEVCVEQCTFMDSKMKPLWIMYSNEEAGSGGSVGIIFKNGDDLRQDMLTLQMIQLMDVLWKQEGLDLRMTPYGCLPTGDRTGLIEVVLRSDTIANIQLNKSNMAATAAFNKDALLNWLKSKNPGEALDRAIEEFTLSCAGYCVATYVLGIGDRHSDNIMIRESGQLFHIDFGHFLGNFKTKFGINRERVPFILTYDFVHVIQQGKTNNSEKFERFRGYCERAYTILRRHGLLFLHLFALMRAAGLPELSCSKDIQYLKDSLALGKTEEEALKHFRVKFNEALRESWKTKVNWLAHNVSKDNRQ
Sequence of G protein-coupled receptor kinase 6 (Homo sapiens) (P43250 whole entry, looked up): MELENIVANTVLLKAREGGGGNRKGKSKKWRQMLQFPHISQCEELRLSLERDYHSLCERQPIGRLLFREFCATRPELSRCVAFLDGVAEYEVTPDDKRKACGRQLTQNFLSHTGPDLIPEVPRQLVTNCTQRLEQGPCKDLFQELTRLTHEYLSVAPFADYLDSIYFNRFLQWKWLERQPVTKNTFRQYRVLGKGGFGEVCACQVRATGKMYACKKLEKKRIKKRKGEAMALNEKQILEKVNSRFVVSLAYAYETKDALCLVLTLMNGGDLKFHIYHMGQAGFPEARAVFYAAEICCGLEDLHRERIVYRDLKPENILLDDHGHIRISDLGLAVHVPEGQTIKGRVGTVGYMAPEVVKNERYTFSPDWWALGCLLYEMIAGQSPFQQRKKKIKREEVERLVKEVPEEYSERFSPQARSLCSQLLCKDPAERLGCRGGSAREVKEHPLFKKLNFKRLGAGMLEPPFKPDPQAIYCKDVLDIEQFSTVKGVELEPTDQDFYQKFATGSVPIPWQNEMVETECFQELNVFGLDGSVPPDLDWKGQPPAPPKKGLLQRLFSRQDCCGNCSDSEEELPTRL

In the case of `CC1=Nc2c(F)cc(-c3nc(Nc4ccc(C5CCN(C)CC5)cn4)ncc3F)cc2C12CCCC2` [CROZBACICLIB], the IC50 (CDK6/cyclin D3) is reported as 1 nM, the IC50 [1] is reported as 154 nM and the inhibition [2] is reported as 0%. The inhibition [3] was -3%, the inhibition [4] was 0% and the inhibition [5] was -4%. For the same compound, the inhibition [6] was 24%, the inhibition [7] was 6% and the inhibition [8] was 0%. The inhibition [9] was 0%, the inhibition [10] was 11% and the inhibition [11] was 25%. For the same compound, the inhibition [12] was 6%, the inhibition [13] was 87% and the inhibition [14] was -1%. For the same compound, the inhibition [15] was 64%, the inhibition [16] was 34% and the inhibition [17] was -1%. For the same compound, the inhibition [18] was 59%, the inhibition [19] was 28% and the inhibition [20] was 14%. The inhibition [21] was 19%, the inhibition [22] was 10% and the inhibition [23] was 4%. The pKa [24] was 8.19, the Cmax [25] was 134 ng/mL and the half-life [26] was 9.1 h. For the same compound, the Tmax [27] was 2 h, the AUC [28] was 37438 ng·h/g and the fCmax [29] was 1.03 ng/g. The inhibition in vivo at 25 mg/kg (U-87 MG) was 96% and the inhibition [30] was 17%.

Source: ChEMBL document CHEMBL4251601 (Eur J Med Chem, 2018)
